Results from patent US11560582B2, “Fusion moieties and microbial hosts for protein production” (priority 2018, dated 2023).

Legend:
[1] = test system: A. wodanis strain 89/09/5532 (1); test: Antibiotic susceptibility testing on LB plates; assay type: cell-based, Aliivibrio wodanis; conditions: 12° C. for 2 days
Description: (§1) Antibiotic susceptibility testing was done by streaking A. wodanis cells onto LB plates supplemented with 2.5% NaCl and one of the following antibiotics: Chloramphenicol (2 μg/mL, Tetracycline (10 μg/mL), Carbenicillin (100 or 200 μg/mL) or Kanamycin (50 or 100 μg/mL). A. wodanis was regarded as susceptible (score=0) if no growth was detected, as intermediate susceptible (score=0.5) if poor growth was detected, or as resistant (score=1) if good growth was detected. The tested concentrations of antibiotics were similar to the recommended working concentrations for E. coli, except Chloramphenicol that was tested at 2 μg/mL (instead of 25 μg/mL). If the test scored as “resistant”, then the test was redone using 2× of the recommended concentration. All A. wodanis strains were streaked onto same agar plate and grown at 12° C. for 2 days.

[2] = test system: A. wodanis strain 02/09/382 (8); test: Antibiotic susceptibility testing on LB plates; assay type: cell-based, Aliivibrio wodanis; conditions: 12° C. for 2 days
Description: as §1

[3] = test system: A. wodanis strain 06/09/170 (27); test: Antibiotic susceptibility testing on LB plates; assay type: cell-based, Aliivibrio wodanis; conditions: 12° C. for 2 days
Description: as §1

[4] = test system: A. wodanis strain 02/09/569 (7); test: Antibiotic susceptibility testing on LB plates; assay type: cell-based, Aliivibrio wodanis; conditions: 12° C. for 2 days
Description: as §1

[5] = test system: A. wodanis strain 88/09/441 (12) (T); test: Antibiotic susceptibility testing on LB plates; assay type: cell-based, Aliivibrio wodanis; conditions: 12° C. for 2 days
Description: as §1

[6] = test system: A. wodanis strain 03/09/160 (37); test: Antibiotic susceptibility testing on LB plates; assay type: cell-based, Aliivibrio wodanis; conditions: 12° C. for 2 days
Description: as §1

[7] = test system: A. wodanis strain 04/60/17347 (35); test: Antibiotic susceptibility testing on LB plates; assay type: cell-based, Aliivibrio wodanis; conditions: 12° C. for 2 days
Description: as §1

[8] = test system: A. wodanis strain 01/09/401 (11); test: Antibiotic susceptibility testing on LB plates; assay type: cell-based, Aliivibrio wodanis; conditions: 12° C. for 2 days
Description: as §1

[9] = test system: A. wodanis strain 06/09/178 (29); test: Antibiotic susceptibility testing on LB plates; assay type: cell-based, Aliivibrio wodanis; conditions: 12° C. for 2 days
Description: as §1

[10] = test system: A. wodanis strain 90/09/325 (5); test: Antibiotic susceptibility testing on LB plates; assay type: cell-based, Aliivibrio wodanis; conditions: 12° C. for 2 days
Description: as §1

[11] = test system: A. wodanis strains; test: Antibiotic resistance test, summary for all strains; assay type: cell-based, Aliivibrio wodanis; conditions: the twelve strains used in this study
Description: Next, we tested for resistance to antibiotics, four of which are commonly used in biotechnological applications, namely carbenicillin, kanamycin, tetracycline and chloramphenicol.
as §1

[12] = test system: A. wodanis strain K7F1 150913; assay type: cell-based, Aliivibrio wodanis; conditions: 12° C. for 2 days
Description: as §1

[13] = test system: A. wodanis strains; conditions: have been reported; cited from earlier work

## CC1(C)S[C@@H]2[C@H](NC(=O)C(C(=O)O)c3ccccc3)C(=O)N2[C@H]1C(=O)O (stereo partly drawn) [CAR, Carbenicillin]
[1]; 100 μg/mL
  Antibiotics resistance CAR 100 μg/mL: 1
[1]; 200 μg/mL
  Antibiotics resistance CAR 200 μg/mL: 1
[2]; 100 μg/mL
  Antibiotics resistance CAR 100 μg/mL: 1
[2]; 200 μg/mL
  Antibiotics resistance CAR 200 μg/mL: 1
[3]; 100 μg/mL
  Antibiotics resistance CAR 100 μg/mL: 1
[3]; 200 μg/mL
  Antibiotics resistance CAR 200 μg/mL: 1
[4]; 100 μg/mL
  Antibiotics resistance CAR 100 μg/mL: 1
[4]; 200 μg/mL
  Antibiotics resistance CAR 200 μg/mL: 1
[5]; 100 μg/mL
  Antibiotics resistance CAR 100 μg/mL: 0.5
[5]; 200 μg/mL
  Antibiotics resistance CAR 200 μg/mL: 0.5
[6]; 100 μg/mL
  Antibiotics resistance CAR 100 μg/mL: 1
[6]; 200 μg/mL
  Antibiotics resistance CAR 200 μg/mL: 1
[7]; 100 μg/mL
  Antibiotics resistance CAR 100 μg/mL: 1
[7]; 200 μg/mL
  Antibiotics resistance CAR 200 μg/mL: 1
[8]; 100 μg/mL
  Antibiotics resistance CAR 100 μg/mL: 1
[8]; 200 μg/mL
  Antibiotics resistance CAR 200 μg/mL: 1
[9]; 100 μg/mL
  Antibiotics resistance CAR 100 μg/mL: 1
[9]; 200 μg/mL
  Antibiotics resistance CAR 200 μg/mL: 1
[10]; 100 μg/mL
  Antibiotics resistance CAR 100 μg/mL: 1
[10]; 200 μg/mL
  Antibiotics resistance CAR 200 μg/mL: 1
[11]
  sensitivity / resistance to antibiotics: resistance
[12]; 100 μg/mL
  Antibiotics resistance CAR 100 μg/mL: 1
[12]; 200 μg/mL
  Antibiotics resistance CAR 200 μg/mL: 1

## NC[C@H]1O[C@H](O[C@H]2[C@H](O)[C@@H](O[C@H]3O[C@H](CO)[C@@H](O)[C@H](N)[C@H]3O)[C@H](N)C[C@@H]2N)[C@H](O)[C@@H](O)[C@@H]1O [KAN, Kanamycin]
[1]; 50 μg/mL
  Antibiotics resistance KAN 50 μg/mL: 1
[1]; 100 μg/mL
  Antibiotics resistance KAN 100 μg/mL: 0.5
[2]; 50 μg/mL
  Antibiotics resistance KAN 50 μg/mL: 1
[2]; 100 μg/mL
  Antibiotics resistance KAN 100 μg/mL: 0.5
[3]; 50 μg/mL
  Antibiotics resistance KAN 50 μg/mL: 0.5
[3]; 100 μg/mL
  Antibiotics resistance KAN 100 μg/mL: 0.5
[4]; 50 μg/mL
  Antibiotics resistance KAN 50 μg/mL: 1
[4]; 100 μg/mL
  Antibiotics resistance KAN 100 μg/mL: 0.5
[5]; 50 μg/mL
  Antibiotics resistance KAN 50 μg/mL: 1
[5]; 100 μg/mL
  Antibiotics resistance KAN 100 μg/mL: 0.5
[6]; 50 μg/mL
  Antibiotics resistance KAN 50 μg/mL: 1
[6]; 100 μg/mL
  Antibiotics resistance KAN 100 μg/mL: 0.5
[7]; 50 μg/mL
  Antibiotics resistance KAN 50 μg/mL: 1
[7]; 100 μg/mL
  Antibiotics resistance KAN 100 μg/mL: 0.5
[8]; 50 μg/mL
  Antibiotics resistance KAN 50 μg/mL: 1
[8]; 100 μg/mL
  Antibiotics resistance KAN 100 μg/mL: 0.5
[9]; 50 μg/mL
  Antibiotics resistance KAN 50 μg/mL: 1
[9]; 100 μg/mL
  Antibiotics resistance KAN 100 μg/mL: 0.5
[10]; 50 μg/mL
  Antibiotics resistance KAN 50 μg/mL: 1
[10]; 100 μg/mL
  Antibiotics resistance KAN 100 μg/mL: 0.5
[12]; 50 μg/mL
  Antibiotics resistance KAN 50 μg/mL: 1
[12]; 100 μg/mL
  Antibiotics resistance KAN 100 μg/mL: 0.5

## Cc1cc(NS(=O)(=O)c2ccc(N)cc2)no1 [sulfamethoxazole]
[13]
  Resistance of A. wodanis strains (reported): Resistance

## CN(C)[C@@H]1C(O)=C(C(N)=O)C(=O)[C@@]2(O)C(O)=C3C(=O)c4c(O)cccc4[C@@](C)(O)[C@H]3C[C@@H]12 [TET, Tetracycline]
[1]; 10 μg/mL
  Antibiotics resistance TET 10 μg/mL: 0
[2]; 10 μg/mL
  Antibiotics resistance TET 10 μg/mL: 0
[3]; 10 μg/mL
  Antibiotics resistance TET 10 μg/mL: 0
[4]; 10 μg/mL
  Antibiotics resistance TET 10 μg/mL: 0
[5]; 10 μg/mL
  Antibiotics resistance TET 10 μg/mL: 0
[6]; 10 μg/mL
  Antibiotics resistance TET 10 μg/mL: 0
[7]; 10 μg/mL
  Antibiotics resistance TET 10 μg/mL: 0
[8]; 10 μg/mL
  Antibiotics resistance TET 10 μg/mL: 0
[9]; 10 μg/mL
  Antibiotics resistance TET 10 μg/mL: 0
[10]; 10 μg/mL
  Antibiotics resistance TET 10 μg/mL: 0
[12]; 10 μg/mL
  Antibiotics resistance TET 10 μg/mL: 0
